Results as given in ChEMBL document CHEMBL1147581, “Development of novel lipid-peptide hybrid compounds with antibacterial activity from natural cationic antibacterial peptides” (Bioorg Med Chem Lett, 2004).
In brackets after ≈: the same amount, converted by molar mass. Activity calls are given as the source filed them. The calls are words filed in the database; no cut-off is given here. Non-standard residues stand in square brackets, D forms with d. Residues, ends and D or L forms follow the SMILES beside them. *: point of attachment. Palmitoleoyl = CCCCCC/C=C\CCCCCCCC(=O)*; PhAc = O=C(Cc1ccccc1)*; Bz = O=C(c1ccccc1)*; Ahx = NCCCCCC(=O)O

Legend:
[1] = test system: Staphylococcus aureus; experiment: Minimum inhibitory concentration against Staphylococcus aureus ATCC 6538; format: functional
[2] = Stability of the peptide in the presence of mouse serum; format: ADME, organism-based
[3] = Minimum inhibitory concentration against Micrococcus luteus ATCC 9341; format: functional
[4] = test system: Escherichia coli; experiment: Minimum inhibitory concentration against Escherichia coli ATCC 25922; NA = not active; format: functional, organism-based
[5] = species: Mus musculus; experiment: Concentration required for half-maximal lysis of mouse erythrocytes; format: functional
[6] = test system: Pseudomonas aeruginosa; experiment: Minimum inhibitory concentration against Pseudomonas aeruginosa ATCC 9027; NA = not active; format: functional, organism-based
[7] = test system: Candida albicans; experiment: Minimum inhibitory concentration against Candida albicans ATCC 36232; NA = not active; format: functional, organism-based
[8] = test system: Escherichia coli; experiment: Minimum inhibitory concentration against Escherichia coli ATCC 25922; format: functional
[9] = test system: Candida albicans; experiment: Minimum inhibitory concentration against Candida albicans ATCC 36232; format: functional
[10] = test system: Pseudomonas aeruginosa; experiment: Minimum inhibitory concentration against Pseudomonas aeruginosa ATCC 9027; format: functional
[11] = species: Mus musculus; experiment: Concentration required for half-maximal lysis of mouse erythrocytes; NA = not active; format: functional, organism-based

SMILES | MIC [1] | half-life [2] | MIC [3] | MIC [4] | HD50 [5] | MIC [6] | MIC [7] | MIC [8] | MIC [9] | MIC [10] | HD50 [11]
CC[C@H](C)[C@H](NC(=O)[C@H](Cc1ccc(O)cc1)NC(=O)[C@H](CCCCN)NC(=O)[C@H](CCCCN)NC(C)=O)C(=O)N[C@@H](CCCCN)C(=O)N[C@H](C(=O)N[C@@H](Cc1ccccc1)C(=O)N[C@H](C(=O)N[C@@H](Cc1ccccc1)C(=O)N[C@@H](CCCCN)C(N)=O)C(C)C)C(C)C (Ac-KKYIKVFVFK-NH2) | 100 µg/mL (≈ 74.6 µM) | 30 min | – | – | – | – | – | – | – | – | –
CC(=O)N[C@@H](Cc1ccc(O)cc1)C(=O)N[C@@H](CS)C(=O)N[C@@H](CC(N)=O)C(=O)NCC(=O)N[C@@H](CCCCN)C(=O)N[C@@H](CCCN=C(N)N)C(=O)N[C@H](C(=O)N[C@@H](CS)C(=O)N[C@H](C(=O)N[C@@H](CS)C(=O)N[C@@H](CCCN=C(N)N)C(N)=O)C(C)C)C(C)C (Ac-YCNGKRVCVCR-NH2) | 50 µg/mL (≈ 37.3 µM) | – | 100 µg/mL (≈ 74.5 µM) | inactive | >100 µg/mL | inactive | inactive | – | – | – | –
CC[C@H](C)[C@H](NC(=O)[C@H](Cc1ccc(O)cc1)NC(=O)[C@H](CCCCN)NC(=O)[C@H](CCCCN)NC(=O)CCCCCNC(C)=O)C(=O)N[C@@H](CCCCN)C(=O)N[C@H](C(=O)N[C@@H](Cc1ccccc1)C(=O)N[C@H](C(=O)N[C@@H](Cc1ccccc1)C(=O)N[C@@H](CCCCN)C(N)=O)C(C)C)C(C)C (Ac-[Ahx]KKYIKVFVFK-NH2) | 6.3 µg/mL (≈ 4.33 µM) | 45 min | – | – | – | – | – | – | – | – | –
CC(=O)NCCCCCC(=O)N[C@@H](Cc1ccc(O)cc1)C(=O)N[C@@H](CS)C(=O)N[C@@H](CC(N)=O)C(=O)NCC(=O)N[C@@H](CCCCN)C(=O)N[C@@H](CCCN=C(N)N)C(=O)N[C@H](C(=O)N[C@@H](CS)C(=O)N[C@H](C(=O)N[C@@H](CS)C(=O)N[C@@H](CCCN=C(N)N)C(N)=O)C(C)C)C(C)C (Ac-[Ahx]YCNGKRVCVCR-NH2) | > 100 µg/mL | – | > 100 µg/mL | inactive | >100 µg/mL | inactive | inactive | – | – | – | –
CC[C@H](C)[C@H](NC(=O)[C@H](Cc1ccc(O)cc1)NC(=O)[C@H](CCCCN)NC(=O)[C@H](CCCCN)NC(=O)c1ccccc1)C(=O)N[C@@H](CCCCN)C(=O)N[C@H](C(=O)N[C@@H](Cc1ccccc1)C(=O)N[C@H](C(=O)N[C@@H](Cc1ccccc1)C(=O)N[C@@H](CCCCN)C(N)=O)C(C)C)C(C)C (Bz-KKYIKVFVFK-NH2) [listing 1 of 2 here] | – | 30 min | – | – | – | – | – | – | – | – | –
CC[C@H](C)[C@H](NC(=O)[C@H](Cc1ccc(O)cc1)NC(=O)[C@H](CCCCN)NC(=O)[C@H](CCCCN)NC(=O)c1ccccc1)C(=O)N[C@@H](CCCCN)C(=O)N[C@H](C(=O)N[C@@H](Cc1ccccc1)C(=O)N[C@H](C(=O)N[C@@H](Cc1ccccc1)C(=O)N[C@@H](CCCCN)C(N)=O)C(C)C)C(C)C (Bz-KKYIKVFVFK-NH2) [listing 2 of 2 here] | 50 µg/mL (≈ 35.6 µM) | – | – | – | – | – | – | – | – | – | –
CC(C)[C@H](NC(=O)[C@H](CS)NC(=O)[C@@H](NC(=O)[C@H](CCCN=C(N)N)NC(=O)[C@H](CCCCN)NC(=O)CNC(=O)[C@H](CC(N)=O)NC(=O)[C@H](CS)NC(=O)[C@H](Cc1ccc(O)cc1)NC(=O)[C@@H](N)Cc1ccccc1)C(C)C)C(=O)N[C@@H](CS)C(=O)N[C@@H](CCCN=C(N)N)C(N)=O (H-FYCNGKRVCVCR-NH2) | 25 µg/mL (≈ 17.3 µM) | – | 12.5 µg/mL (≈ 8.64 µM) | – | >100 µg/mL | – | – | 25 µg/mL (≈ 17.3 µM) | 25 µg/mL (≈ 17.3 µM) | 25 µg/mL (≈ 17.3 µM) | –
CC(C)[C@H](NC(=O)[C@H](CS)NC(=O)[C@@H](NC(=O)[C@H](CCCN=C(N)N)NC(=O)[C@H](CCCCN)NC(=O)CNC(=O)[C@H](CC(N)=O)NC(=O)[C@H](CS)NC(=O)[C@H](Cc1ccc(O)cc1)NC(=O)[C@H](Cc1ccccc1)NC(=O)[C@@H](N)CCCCN)C(C)C)C(=O)N[C@@H](CS)C(=O)N[C@@H](CCCN=C(N)N)C(N)=O (H-KFYCNGKRVCVCR-NH2) | 6.3 µg/mL (≈ 4 µM) | – | 6.3 µg/mL (≈ 4 µM) | – | >100 µg/mL | – | – | 25 µg/mL (≈ 15.9 µM) | 12.5 µg/mL (≈ 7.94 µM) | 50 µg/mL (≈ 31.7 µM) | –
CC(C)[C@H](NC(=O)[C@H](CS)NC(=O)[C@@H](NC(=O)[C@H](CCCN=C(N)N)NC(=O)[C@H](CCCCN)NC(=O)CNC(=O)[C@H](CC(N)=O)NC(=O)[C@H](CS)NC(=O)[C@H](Cc1ccc(O)cc1)NC(=O)[C@H](CCCCN)NC(=O)[C@@H](N)CCCCN)C(C)C)C(=O)N[C@@H](CS)C(=O)N[C@@H](CCCN=C(N)N)C(N)=O (H-KKYCNGKRVCVCR-NH2) | 6.3 µg/mL (≈ 4.05 µM) | – | 6.3 µg/mL (≈ 4.05 µM) | – | >100 µg/mL | – | – | 25 µg/mL (≈ 16.1 µM) | 12.5 µg/mL (≈ 8.03 µM) | 25 µg/mL (≈ 16.1 µM) | –
CC[C@H](C)[C@H](NC(=O)[C@H](Cc1ccc(O)cc1)NC(=O)[C@H](CCCCN)NC(=O)[C@@H](N)CCCCN)C(=O)N[C@@H](CCCCN)C(=O)N[C@H](C(=O)N[C@@H](Cc1ccccc1)C(=O)N[C@H](C(=O)N[C@@H](Cc1ccccc1)C(=O)N[C@@H](CCCCN)C(N)=O)C(C)C)C(C)C (H-KKYIKVFVFK-NH2) | 6.3 µg/mL (≈ 4.85 µM) | 8 min | – | – | – | – | – | – | – | – | –
CC(C)[C@H](NC(=O)[C@H](CS)NC(=O)[C@@H](NC(=O)[C@H](CCCN=C(N)N)NC(=O)[C@H](CCCCN)NC(=O)CNC(=O)[C@H](CC(N)=O)NC(=O)[C@H](CS)NC(=O)[C@H](Cc1ccc(O)cc1)NC(=O)[C@@H](N)CCCCN)C(C)C)C(=O)N[C@@H](CS)C(=O)N[C@@H](CCCN=C(N)N)C(N)=O (H-KYCNGKRVCVCR-NH2) | 12.5 µg/mL (≈ 8.75 µM) | – | 6.3 µg/mL (≈ 4.41 µM) | – | >100 µg/mL | – | – | 50 µg/mL (≈ 35 µM) | 25 µg/mL (≈ 17.5 µM) | 50 µg/mL (≈ 35 µM) | –
CC(C)[C@H](NC(=O)[C@H](CS)NC(=O)[C@@H](NC(=O)[C@H](CCCN=C(N)N)NC(=O)[C@H](CCCCN)NC(=O)CNC(=O)[C@H](CC(N)=O)NC(=O)[C@H](CS)NC(=O)[C@@H](N)Cc1ccc(O)cc1)C(C)C)C(=O)N[C@@H](CS)C(=O)N[C@@H](CCCN=C(N)N)C(N)=O (H-YCNGKRVCVCR-NH2) | 25 µg/mL (≈ 19.2 µM) | – | 25 µg/mL (≈ 19.2 µM) | – | >100 µg/mL | – | – | 12.5 µg/mL (≈ 9.62 µM) | 25 µg/mL (≈ 19.2 µM) | 50 µg/mL (≈ 38.5 µM) | –
CC(C)[C@H](NC(=O)[C@H](CS)NC(=O)[C@@H](NC(=O)[C@H](CCCN=C(N)N)NC(=O)[C@H](CCCCN)NC(=O)CNC(=O)[C@H](CC(N)=O)NC(=O)[C@H](CS)NC(=O)[C@H](Cc1ccc(O)cc1)NC(=O)CCCCCN)C(C)C)C(=O)N[C@@H](CS)C(=O)N[C@@H](CCCN=C(N)N)C(N)=O (H-[Ahx]YCNGKRVCVCR-NH2) | 50 µg/mL (≈ 35.4 µM) | – | 50 µg/mL (≈ 35.4 µM) | inactive | >100 µg/mL | inactive | inactive | – | – | – | –
CCCCCC/C=C\CCCCCCCC(=O)N[C@@H](Cc1ccc(O)cc1)C(=O)N[C@@H](CS)C(=O)N[C@@H](CC(N)=O)C(=O)NCC(=O)N[C@@H](CCCCN)C(=O)N[C@@H](CCCN=C(N)N)C(=O)N[C@H](C(=O)N[C@@H](CS)C(=O)N[C@H](C(=O)N[C@@H](CS)C(=O)N[C@@H](CCCN=C(N)N)C(N)=O)C(C)C)C(C)C (Palmitoleoyl-YCNGKRVCVCR-NH2) | > 100 µg/mL | – | > 100 µg/mL | inactive | >100 µg/mL | inactive | inactive | – | – | – | –
CC(C)[C@H](NC(=O)[C@H](CS)NC(=O)[C@@H](NC(=O)[C@H](CCCN=C(N)N)NC(=O)[C@H](CCCCN)NC(=O)CNC(=O)[C@H](CC(N)=O)NC(=O)[C@H](CS)NC(=O)[C@H](Cc1ccc(O)cc1)NC(=O)Cc1ccccc1)C(C)C)C(=O)N[C@@H](CS)C(=O)N[C@@H](CCCN=C(N)N)C(N)=O (PhAc-YCNGKRVCVCR-NH2) | 100 µg/mL (≈ 70.5 µM) | – | > 100 µg/mL | inactive | >100 µg/mL | inactive | inactive | – | – | – | –
CC[C@H](C)[C@H](NC(=O)CN)C(=O)NCC(=O)N[C@@H](CCCCN)C(=O)N[C@@H](Cc1ccccc1)C(=O)N[C@@H](CC(C)C)C(=O)N[C@@H](Cc1c[nH]cn1)C(=O)N[C@@H](CO)C(=O)N[C@@H](C)C(=O)N[C@@H](CCCCN)C(=O)N[C@@H](CCCCN)C(=O)N[C@@H](Cc1ccccc1)C(=O)NCC(=O)N[C@@H](CCCCN)C(=O)N[C@@H](C)C(=O)N[C@@H](Cc1ccccc1)C(=O)N[C@H](C(=O)NCC(=O)N[C@@H](CCC(=O)O)C(=O)N[C@H](C(=O)N[C@@H](CCSC)C(=O)N[C@@H](CC(N)=O)C(=O)N[C@@H](CO)C(=O)O)[C@@H](C)CC)C(C)C [MAGAININ 2] (H-GIGKFLHSAKKFGKAFVGEIMNS-OH) | 40 µg/mL (≈ 16.2 µM) | – | 50 µg/mL (≈ 20.3 µM) | – | – | – | – | 20 µg/mL (≈ 8.11 µM) | 50 µg/mL (≈ 20.3 µM) | 20 µg/mL (≈ 8.11 µM) | inactive
CC[C@H](C)[C@H](NC(=O)CN)C(=O)NCC(=O)N[C@@H](C)C(=O)N[C@H](C(=O)N[C@@H](CC(C)C)C(=O)N[C@@H](CCCCN)C(=O)N[C@H](C(=O)N[C@@H](CC(C)C)C(=O)N[C@H](C(=O)N[C@H](C(=O)NCC(=O)N[C@@H](CC(C)C)C(=O)N1CCC[C@H]1C(=O)N[C@@H](C)C(=O)N[C@@H](CC(C)C)C(=O)N[C@H](C(=O)N[C@@H](CO)C(=O)N[C@@H](Cc1c[nH]c2ccccc12)C(=O)N[C@H](C(=O)N[C@@H](CCCCN)C(=O)N[C@@H](CCCNC(=N)N)C(=O)N[C@@H](CCCCN)C(=O)N[C@@H](CCCNC(=N)N)C(=O)N[C@@H](CCC(N)=O)C(=O)N[C@@H](CCC(N)=O)C(N)=O)[C@@H](C)CC)[C@@H](C)CC)[C@@H](C)O)[C@@H](C)O)C(C)C)C(C)C [MELITTIN] | – | – | 0.78 µg/mL (≈ 0.274 µM) | – | – | – | – | – | 1.56 µg/mL (≈ 0.548 µM) | – | inactive
